Broadly, the logP is the decadic logarithm of the partition coefficient of the neutral form, usually between octanol and water. A high value points to a more lipophilic compound. The chromatographic logP is lipophilicity estimated from chromatographic retention. The low end stands for a more hydrophilic compound, the high end for a more lipophilic compound.

For four molecules, Efficacy, logP and chromatographic logP results are on record in patent publication US9617286B2, “Fungicide N-[(trisubstitutedsilyl)methyl]-carboxamide derivatives” (BAYER INTELLECTUAL PROPERTY GMBH, priority 2011, dated 2017).

Each structure is given as a SMILES string.

One data set relates to Botrytis cinerea. The data set is described as follows: In vivo preventive test on Botrytis cinerea (grey mould) - 2nd test. Particulars: gherkin plants, 2nd test (acetone/tween/DMSO), 500 ppm of active ingredient, grading 4 to 5 days after contamination. Here is the method: Gherkin plants (“Vert petit de Paris” variety), sown in starter cups on a 50/50 peat soil pozzolana substrate and grown at 24° C., are treated at the Z11 cotyledon stage by spraying with the active ingredient prepared as described above. Plants, used as controls, are treated with the mixture of acetone/tween/DMSO/water not containing the active material. After 24 hours, the plants are contaminated by spraying the cotyledons with an aqueous suspension of cryopreserved Botrytis cinerea spores (50 000 spores per mL). The spores are suspended in a nutrient solution composed of 10 g/L of PDB, 50 g/L of D-Fructose, 2 g/L of NH4NO3 and 1 g/L of KH2PO4. The contaminated gherkin plants are incubated at 17° C. and at 90% relative humidity. Grading (% of efficacy) is carried out 4 to 5 days after the contamination, in comparison with the control plants.

Data set [1] can be described thus: log P by HPLC on reversed-phase column (C 18), EEC Directive 79/831 Annex V.A8. It is filed as physicochemical. Particulars: 40° C., 0.1% aqueous formic acid and acetonitrile, linear gradient 10% to 90% acetonitrile. The procedure, abridged: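 Reversed-phase C18 HPLC at 40° C, 0.1% aqueous formic acid/acetonitrile gradient from 10% to 90% acetonitrile. log P derived from retention times by linear interpolation between unbranched alkan-2-ones (3–16 carbons) of known log P.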

In another data set the test system is Sphaerotheca fuliginea. Put plainly: In vivo preventive test on Sphaerotheca fuliginea (powdery mildew on cucurbits). Particulars: gherkin plants, preventive spray, 500 ppm of active ingredient, grading 12 days after contamination. The procedure, abridged: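 Gherkin plants at cotyledon stage Z11 were sprayed with compound and inoculated 24 h later with Sphaerotheca fuliginea spores (100 000 spores per mL). Incubation was at about 20 °C and 70–80% relative humidity. Efficacy (%) was graded 12 days post-inoculation against solvent-treated controls.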

Another data set concerns Septoria tritici. Put plainly: In vivo preventive test on Septoria tritici (wheat). Particulars: preventive spray, 500 ppm of active ingredient, grading 24 days after contamination. The procedure, abridged:
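Wheat (Scipion) at the 1-leaf stage was sprayed with compound, then inoculated 24 h later with Septoria tritici spores (500 000 spores/mL). Plants were held 72 h at 18 °C, 100% RH, then 21 days at 90% RH. Efficacy (%) was graded 24 days post-inoculation versus solvent-treated controls.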

The subject of a further data set is Puccinia recondita. Put plainly: In vivo preventive test on Puccinia recondita (brown rust on wheat). Particulars: preventive spray, 500 ppm of active ingredient, grading 12 days after contamination. The method, boiled down: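 Wheat (Scipion) at the 1-leaf stage was sprayed with compound and inoculated 24 h later with P. recondita spores (100 000 spores/mL). Plants were held 24 h at 20° C/100% RH, then 10 days at 20° C/70-80% RH. Efficacy (%) was graded 12 days post-inoculation against solvent-treated controls.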

The next data set has as its system Uromyces appendiculatus. Put plainly: In vivo preventive test on Uromyces appendiculatus (bean rust). Particulars: bean plants, preventive spray, 500 ppm of active ingredient, grading 11 days after contamination. As to the method: Bean plants (“Saxa” variety), sown in starter cups on a 50/50 peat soil pozzolana substrate and grown at 24° C., are treated at the 2 leaf stage (9 cm height) by spraying with the active ingredient prepared as described above. Plants, used as controls, are treated with the mixture of acetone/tween/DMSO/water not containing the active material. After 24 hours, the plants are contaminated by spraying the leaves with an aqueous suspension of Uromyces appendiculatus spores (150 000 spores per mL). The spores are collected from infected plants and are suspended in water containing 2.5 mL/L of Tween 80 at 10%. The contaminated bean plants are incubated for 24 hours at 20° C. and at 100% relative humidity, and then for 10 days at 20° C. and at 70-80% relative humidity. Grading (% of efficacy) is carried out 11 days after the contamination, in comparison with the control plants.

The subject of another data set is Pyricularia oryzae. It is filed as in vivo. Particulars: rice, preventive spray, 500 ppm of active ingredient, grading 6 days after contamination.
Data set [2] has as its system Pyrenophora teres. Put plainly: In vivo preventive test on Pyrenophora teres (barley) - 2nd test. Particulars: 2nd test (acetone/tween/DMSO), 500 ppm of active ingredient, grading 14 days after contamination. As to the method: Barley plants (“Plaisant” variety), sown in starter cups on a 50/50 peat soil pozzolana substrate and grown at 22° C., are treated at the 1 leaf stage (10 cm height) by spraying with the active ingredient prepared as described above. Plants, used as controls, are treated with the mixture of acetone/tween/DMSO/water not containing the active material. After 24 hours, the plants are contaminated by spraying the leaves with an aqueous suspension of Pyrenophora teres spores (12 000 spores per mL). The spores are collected from a 12-day-old culture. The contaminated barley plants are incubated for 48 hours at 20° C. and at 100% relative humidity, and then for 12 days at 20° C. at 70-80% relative humidity. Grading (% of efficacy) is carried out 14 days after the contamination, in comparison with the control plants.

Data set [3] deals with Pyrenophora teres. The data set is described as follows: In vivo preventive test on Pyrenophora teres (barley). Particulars: preventive spray (DMF/alkylaryl polyglycol ether), 500 ppm of active ingredient, evaluated 7-9 days after inoculation. The method, boiled down: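 Young barley plants sprayed preventively with compound in DMF/emulsifier diluted in water, then inoculated one day later with aqueous P. teres spore suspension. Held 48 h at 22 °C and 100% relative humidity, then greenhouse at about 20 °C and 80% humidity.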

Another data set relates to Alternaria solani. Put plainly: In vivo preventive test on Alternaria solani (tomato). Particulars: preventive spray, 500 ppm of active ingredient, evaluated 7 days after inoculation.
For another data set, the system named is Alternaria brassicae. The data set is described as follows: In vivo preventive test on Alternaria brassicae (leaf spot on radish). Particulars: preventive spray, 500 ppm of active ingredient, grading 6 days after contamination.

On to `C[Si](C)(CNC(=O)c1cccnc1C(F)F)c1ccccc1Cl` [Example 22], for which the Efficacy with Botrytis cinerea was 92%; in the data set with Sphaerotheca fuliginea, 78%; in the data set with Septoria tritici, 96%; in the data set on Puccinia recondita, 100%; in the data set on Uromyces appendiculatus, 96%. This molecule also returned a logP in data set [1] of 3.06.

Consider `C[Si](C)(CN(C(=O)c1cccnc1Cl)C1CC1)c1ccc(F)cc1Cl` [Example 46], for which the logP in data set [1] came to 4.06. This molecule also came in with an Efficacy in the data set on Pyricularia oryzae of 92%.

For `C[Si](C)(CNC(=O)c1cccnc1C(F)F)c1ccccc1` [Example 1, 2-(difluoromethyl)-N-{[dimethyl(phenyl)silyl]methyl}nicotinamide], the Efficacy is 79% in the data set on Pyrenophora teres [2]; 90% with Pyrenophora teres [3]; 89% with Botrytis cinerea; 98% in the data set on Sphaerotheca fuliginea; 95% in the data set on Alternaria solani; 100% with Septoria tritici. The Efficacy in the data set with Puccinia recondita was found to be 88%; with Uromyces appendiculatus, 100%. The molecule also had a chromatographic logP in data set [1] of 2.71.

As for `C[Si](C)(CN(C(=O)c1cccnc1C(F)F)C1CC1)c1ccc(F)cc1Cl` [Example 45], the logP in data set [1] was found to be 3.96. Also, the Efficacy in the data set with Sphaerotheca fuliginea is recorded as 83%; in the data set with Pyricularia oryzae, 83%; in the data set on Alternaria brassicae it was 90%; in the data set with Septoria tritici it was 80%; in the data set with Puccinia recondita, 75%.
